Patent US8277815B2, “Pharmaceutical composition comprising an antigen” (Intercell AG, priority 1999, dated 2012)

Tests used:
[1] = tested on: tick-born encephalitis (TBE) virus; conditions: in vivo; cited from earlier work
antigen specific T cells = experiment: IFN-γ-ELISPOT of lymph node lymphocytes 10 days after subcutaneous vaccination; format: in vivo, C57BL/6 mice; conditions: lymph node lymphocytes of TRP-2 vaccinated mice; negative control with the same MHC restriction
Protocol: Experimental Groups (5 Mice Each) • 1) TRP-2 peptide • 2) TRP-2 peptide+HGH • 3) TRP-2 peptide+pR 60 • 4) TRP-2 peptide+pR 60+HGH
On day 0 mice were injected subcutaneously with a total volume of 100 μl containing the above mentioned compounds. Animals were sacrificed 10 days after injection of the vaccine and mesenteric and inguinal lymph nodes harvested. Results are illustrated in FIG. 1.
Lymphocytes were prepared from lymph nodes as follows: cells were passed through a 70 μm sieve and washed twice with DMEM medium (GIBCO BRL) containing 2.5% fetal calf serum (FCS; SIGMA chemicals). Cells were adjusted to 10^7 cells/ml in complete medium (DMEM+10% FCS). IFN-γ-ELISPOT assays were carried out in triplicate as described (Miyahira et al., 1995). This method is a widely used procedure allowing the quantification of antigen-specific T cells. Lymphocytes were restimulated with TRP-2 peptide or with an ovalbumin-derived peptide (SIINFEKL) with the same MHC restriction serving as negative control.
Spots representing single T cells specific for the peptide used for re-stimulation (and immunization) were counted. The number of background spots observed with cells incubated without peptide(s) was subtracted from all samples.

Substance | vaccine efficacy / protection of animals [1] | spots on restimulation with the ovalbumin-derived control peptide (IFN-γ-ELISPOT) (antigen specific T cells)
HGH: Human growth hormone, pituitary-derived factor; SAIZEN, Laboratoires Serono used in Example 1 | potentiated vaccine efficacy and led to the protection of animals after only one injection of the vaccine | 
SIINFEKL [ovalbumine derived peptide] |  | no spots detected
